According to patent publication US11208404B2 (PERENNA PHARMACEUTICALS, INC., priority 2017, dated 2021):
Several values for one entry are separate records, joined by “and”; a condition that tells them apart may be missing. Equal entries are not always repeated.

Target: ALCAT1 (Homo sapiens (Human), UniProt Q6UWP7)
Test: In vitro acyltransferase assay for ALCAT1 inhibitors
Assay type: biochemical
Settings: for % inh @ 1 μM / inhibition at 1 µM: 1 μM compound; for % inh @ 1 μM / inhibition at 1 µM / % inh @ 10 μM / inhibition at 10 µM: in vitro enzymatic assay; for % inh @ 10 μM / inhibition at 10 µM: 10 μM compound; for IC50: ALCAT1 enzyme activity, triplicates, GraphPad, read-out: IC50
Source text: The human ALCAT1 protein were expressed in Spodoptera frugiperda (Sf9) insect cells by using a Bac-to-Bac baculovirus expression system (Invitrogen) according to the manufacturer's instruction. High-titer recombinant baculovirus expressing the human ALCAT1 protein was generated by several rounds of viral amplification. The Sf9 cells were typically infected with recombinant baculovirus for 3 days, harvested in ice-cold phosphate-buffered saline (PBS), and homogenized in 20 mm NaCl by going through French press. The total cell lysates were centrifuged at 10,000×g for 1 hours at 4° C. to eliminate the nucleus fraction, followed by ultracentrifugation at 100,000×g to pallet the membrane fraction. The membrane fraction was resuspended in enzymatic buffer that contain 10% glycerol, quantified for protein concentration, aliquoted, and stored at −80° C.
ALCAT1 enzymatic activity was determined by measuring the conversion of monolysocardiolipin (MLCL) to cardiolipin or lysophosphatidylglycerol (LPG) to phosphatidylglycerol (PG) in an enzymatic reaction mixture that contained 50 mm Tris/HCl, pH 7.0, 100 μm lysophospholipids, 25 μm [^14C]acyl-CoA (50 mCi/mmol, American Radiolabeled Chemicals, Inc), and membrane fraction (0.5-2.5 μg) in a total volume of 200 μl. The reaction was incubated at room temperature for 30 min. The lipids were extracted will chloroform, dried, and separated by thin layer chromatography (TLC) with chloroform:hexane:methanol:acetic acid (50:30:10:5, v/v) or chloroform:methanol:water (65:25:4, v/v). After separation, TLC plates were exposed to a Phosphorlmager screen to visualize the radiolabeled products with a Molecular Dynamics Typhoon Scanner (Sunnyvale, Calif.). In some experiments, NBD-CoA was used at 100 μM to replace the [^14C]acyl-CoA in the enzymatic reaction. All quantitative data were expressed as mean±S.E. Statistical analyses for differences between two groups were carried out using a Student's t test.
Compound inhibitors for ALCAT1 enzyme were analyzed by an in vitro enzymatic assay as detailed above. Compound inhibitors were added to the enzymatic mixture at 1-20 μM concentrations before the start of the acyltransferase reaction.
Where multiple measurements were taken this is indicated by a “/” between multiple values.
IC50 values for each compound were analyzed in triplicates, and calculated by GraphPad software.

ALCAT1, sequence (Q6UWP7 whole entry): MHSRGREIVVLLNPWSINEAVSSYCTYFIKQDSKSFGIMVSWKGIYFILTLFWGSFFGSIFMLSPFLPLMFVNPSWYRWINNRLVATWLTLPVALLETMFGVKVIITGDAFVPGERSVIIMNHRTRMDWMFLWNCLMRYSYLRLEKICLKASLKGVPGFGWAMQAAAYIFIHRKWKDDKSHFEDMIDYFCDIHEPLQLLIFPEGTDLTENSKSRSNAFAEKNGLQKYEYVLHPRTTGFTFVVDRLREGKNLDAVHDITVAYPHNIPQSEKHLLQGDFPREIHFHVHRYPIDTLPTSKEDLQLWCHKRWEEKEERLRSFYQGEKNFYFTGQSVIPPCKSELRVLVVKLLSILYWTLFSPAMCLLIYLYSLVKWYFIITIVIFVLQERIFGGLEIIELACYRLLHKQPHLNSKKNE

Compound	% inh @ 1 μM	inhibition at 1 µM	% inh @ 10 μM	IC50	inhibition at 10 µM
O=C(Nc1cccc(-c2nnc(-c3ccco3)o2)c1)c1ccccc1C(F)(F)F [Compound 7]					3%
O=C(Nc1cccc(-c2nnc(-c3ccco3)o2)c1)c1ccccc1C(F)F [Compound 9]		47%			87%
O=C(Nc1cccc(-c2nnc(-c3ccco3)o2)c1)c1ccc(C(F)F)cc1 [Compound 10]					2%
O=C(O)c1ccccc1C(=O)Nc1cccc(-c2nnc(-c3ccco3)o2)c1 [Compound 11]					9%
O=C(Nc1cccc(-c2nnc(-c3cccs3)o2)c1)c1ccccc1F [Compound 15, 2-fluoro-N-(3-(5-(thiophen-2-yl)-1,3,4-oxadiazol-2-yl)phenyl)benzamide]		20%			
O=C(Nc1cccc(-c2nnc(-c3ccc[nH]3)o2)c1)c1ccccc1F [Compound 16]	58% and 85%				
O=C(Nc1cccc(-c2nnc(-c3ccc(Br)o3)o2)c1)c1ccccc1F [Compound 18]					2%
O=C(Nc1cccc(-c2nnc(-c3ccoc3)o2)c1)c1ccccc1F [Compound 20, 2-fluoro-N-(3-(5-(furan-3-yl)-1,3,4-oxadiazol-2-yl)phenyl)benzamide]		13%			
O=C(Nc1cccc(-c2nnc(-c3ccsc3)o2)c1)c1ccccc1F [Compound 21]					85%
O=C(Nc1cccc(-c2nnc(C3CCCO3)o2)c1)c1ccccc1F (stereo not shown) [Compound 22, 2-fluoro-N-(3-(5-(tetrahydrofuran-2-yl)-1,3,4-oxadiazol-2-yl)phenyl)benzamide]		20%			8%
O=C(Nc1cc(-c2nnc(-c3ccco3)o2)ccc1Cl)c1ccccc1F [Compound 23]				1800 nM	89%
O=C(Nc1cc(-c2nnc(-c3ccco3)o2)ccc1F)c1ccccc1F [Compound 27]				47 nM	98%
O=C(Nc1ccc(-c2nnc(-c3ccco3)o2)cc1)c1ccccc1F [Compound 35, 2-fluoro-N-(4-(5-(furan-2-yl)-1,3,4-oxadiazol-2-yl)phenyl)benzamide]		16%			5%
N#Cc1ccc(C(=O)Nc2cccc(-c3nnc(-c4ccco4)o3)c2)cc1 [Compound 36]					1%
O=C(Nc1cccc(-c2nnc(-c3ccco3)o2)c1)c1cccnc1F [Compound 37]			87%	3900 nM	76%
O=C(Nc1cc(-c2nnc(-c3ccco3)o2)ccn1)c1ccccc1F [Compound 39, 2-Fluoro-N-(4-(5-(furan-2-yl)-1,3,4-oxadiazol-2-yl)pyridin-2-yl)benzamide]		92%		93 nM	
O=C(Nc1ccccc1F)c1cccc(-c2nnc(-c3ccco3)o2)c1 [Compound 44, N-(2-fluorophenyl)-3-(5-(furan-2-yl)-1,3,4-oxadiazol-2-yl)benzamide]		26%		990 nM	

Compound	% inh @ 1 μM	inhibition at 1 µM	% inh @ 10 μM	IC50	inhibition at 10 µM
O=C(Nc1cncc(-c2nnc(-c3ccco3)o2)c1)c1ccccc1F [Compound 51]	57%	43%			
O=C(Nc1ccnc(-c2nnc(-c3ccco3)o2)c1)c1ccccc1F [Compound 52]		59%		750 nM	
COc1ccccc1C(=O)Nc1cccc(-c2nnc(-c3ccco3)o2)c1 [Compound 55]		81%		130 nM	100%
Cc1cccc(C(=O)Nc2cccc(-c3nnc(-c4ccco4)o3)c2)c1 [Compound 57]			89% and 94%	2800 nM	75%
COc1cccc(C(=O)Nc2cccc(-c3nnc(-c4ccco4)o3)c2)c1 [Compound 58]				2400 nM	45%
O=C(Nc1cccc(-c2nnc(-c3ccco3)o2)c1)c1ccc(Br)cc1F [Compound 73]		15%			66%
O=C(Nc1cccc(-c2nnc(-c3ccco3)o2)c1)c1ccc(-c2ccccc2)cc1F [Compound 74]		4%			21%
COC(=O)c1ccccc1C(=O)Nc1cccc(-c2nnc(-c3ccco3)o2)c1 [Compound 75]		16%			36%
Cc1c(NC(=O)c2ccccc2F)cccc1-c1nnc(-c2ccco2)o1 [Compound 78]	59%	42%			
O=C(Nc1cccc(-c2nnc(-c3ccco3)o2)c1F)c1ccccc1F [Compound 79, 2-fluoro-N-(2-fluoro-3-(5-(furan-2-yl)-1,3,4-oxadiazol-2-yl)phenyl)benzamide]		89%		110 nM	
O=C(Nc1cc(-c2nnc(-c3ccc(Cl)o3)o2)c(F)cc1F)c1ccccc1F [Compound 80]		22%			
O=C(Nc1cccc(-c2nnc(-c3ccc(Cl)o3)o2)n1)c1ccccc1F [Compound 82]		23%			3%
O=C(Nc1cccc(-c2nnc(-c3ccco3)o2)c1)c1ccc(I)cc1 [Compound 84]		5%			
O=C(Nc1cccc(-c2nnc(-c3ccco3)o2)c1)c1ccc([N+](=O)[O-])cc1 [Compound 85]		10%			3%
O=C(Nc1cccc(-c2nnc(-c3ccco3)o2)c1)c1cccc([N+](=O)[O-])c1 [Compound 87]		29%			62%
COc1ccc(C(=O)O)cc1C(=O)Nc1cccc(-c2nnc(-c3ccco3)o2)c1 [Compound 114]		36%			48%

The next lines start with the values.

% inh @ 1 μM	inhibition at 1 µM	% inh @ 10 μM	IC50	inhibition at 10 µM	Compound
63%	59%	48% and 49% and 79%	210 nM		O=C(Nc1cccc(-c2nnc(-c3ccco3)o2)c1)c1ccccc1F [Compound 1]
			4100 nM	39%	O=C(Nc1cccc(-c2nnc(-c3ccco3)o2)c1)c1ccccc1Br [Compound 5]
				2%	Cc1ccc(-c2nnc(-c3cccc(NC(=O)c4ccccc4F)c3)o2)o1 [Compound 19]
				2%	O=C(Nc1ccc(Cl)c(-c2nnc(-c3ccco3)o2)c1)c1ccccc1F [Compound 24]
				56%	O=C(Nc1cc(-c2nnc(-c3ccco3)o2)ccc1Br)c1ccccc1F [Compound 25]
				51%	O=C(Nc1ccc(F)c(-c2nnc(-c3ccco3)o2)c1)c1ccccc1F [Compound 28]
			1700 nM		O=C(Nc1cccc(-c2cnc(-c3ccco3)o2)c1)c1ccccc1F [Compound 40]
	23%			70%	O=C(Nc1cccc(-c2nnc(-c3ccno3)o2)c1)c1ccccc1F [Compound 42]
		43% and 68% and 75%	3800 nM		O=C(Nc1cccc(-c2nnc(-c3ccco3)o2)c1)c1ccccc1 [Compound 46]
		2%			O=C(Nc1cccc(-c2nnc(-c3ccco3)o2)c1)c1ccc(-c2ccccc2)cc1 [Compound 48]
	47%			90%	O=C(Nc1cccc(-c2nnc(-c3ccco3)o2)n1)c1ccccc1F [Compound 53]
				2%	N#Cc1ccccc1C(=O)Nc1cccc(-c2nnc(-c3ccco3)o2)c1 [Compound 56]
			2000 nM		O=C(Nc1cccc(-c2nnc(-c3ccco3)o2)c1)c1cccc(Cl)c1 [Compound 59]
	2%			11%	O=C(Nc1cccc(-c2nnc(-c3ccco3)o2)c1)c1cccc(O)c1 [Compound 62]
	15%			55%	O=C(Nc1cccc(-c2nnc(-c3ccco3)o2)c1)c1ccccc1O [Compound 64]
	51%			93%	O=C(Nc1cccc(-c2nnc(-c3ccco3)o2)c1)c1cccc(OCc2ccccc2)c1 [Compound 71]
	37%			21%	Nc1ccccc1C(=O)Nc1cccc(-c2nnc(-c3ccco3)o2)c1 [Compound 77]
36%	20%				Cc1ccc(NC(=O)c2ccccc2F)cc1-c1nnc(-c2ccco2)o1 [Compound 81]
	36%			43%	O=C(Nc1cccc(-c2nnc(-c3ccco3)o2)c1)c1ccccc1I [Compound 83]
	11%			2%	O=C(Nc1cccc(-c2nnc(-c3ccco3)o2)c1)C1CCCCC1 [Compound 98]
	3%			7%	O=C(Nc1cccc(-c2nnc(-c3ccco3)o2)c1)c1ccco1 [Compound 100]
	96%		110 nM	94%	COc1ccc(I)cc1C(=O)Nc1cccc(-c2nnc(-c3ccco3)o2)c1 [Compound 113]
